Data published in the supplement of paper PMC4314810.
± gives the standard deviation of the averaged measurements.

Tested on: MCF7
Test: HRG-induced Akt activation (dPAkt = log2 pAkt/Akt HRG-stimulated minus log2 pAkt/Akt basal) (log2 ratio difference); higher = stronger HRG-induced Akt(T308) phosphorylation
Settings: miRNA mimic concentration 10 nM; time after transfection 72 h; heregulin 10 ng/ml; stimulation time 1 h
In short: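 MCF7 cells ([…], 96-well plates) carrying one of 879 miRNA mimics, transfected at 10 nM final with Lipofectamine RNAiMax in two biological replicates, were stimulated after 72 h with 10 ng/ml heregulin-beta1 for 1 h or left unstimulated. Phospho-Akt(T308) and total Akt in cells fixed with 4% PFA were read by In-Cell Western on an Odyssey and corrected for column-wise fixation decay to give log2(pAkt/Akt). Heregulin-induced Akt activation is the replicate mean of stimulated minus unstimulated ratios.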

Sequence	HRG-induced Akt activation (log2)
UGUAAACAUCCUUGACUGGAAG	1.12 ± 0.049
CUAUACGACCUGCUGCCUUUCU	1.47 ± 0.14
AAAAGUGCUUACAGUGCAGGUAG	1.2 ± 0.069
UAGCACCAUUUGAAAUCGGUUA	1.17 ± 0.57
ACUCAAACUGUGGGGGCACU	0.915 ± 0.061
UGUGACAGAUUGAUAACUGAAA	1.84 ± 0.056
UGGGUUCCUGGCAUGCUGAUUU	1.27 ± 0.13
UACGUCAUCGUUGUCAUCGUCA	1.21 ± 0.51
UUGGGAUCAUUUUGCAUCCAUA	1.13 ± 0.3
GGUCCAGAGGGGAGAUAGGUUC	1.67 ± 0.24
UGGUCUAGGAUUGUUGGAGGAG	1.61 ± 0.078
CAACUAGACUGUGAGCUUCUAG	2.04 ± 0.049
UAGCACCAUCUGAAAUCGGUUA	1.24 ± 0.077
CUUAUGCAAGAUUCCCUUCUAC	1.85 ± 0.23
UGGACGGAGAACUGAUAAGGGU	1.48 ± 0.21
UGACCGAUUUCUCCUGGUGUUC	2.09 ± 0.076
AUGGUACCCUGGCAUACUGAGU	1.62 ± 0.59
UUCAAGUAAUUCAGGAUAGGU	1.06 ± 0.39
AGUUCUUCAGUGGCAAGCUUUA	0.966 ± 0.66
UGAGCCCCUGUGCCGCCCCCAG	2.137 ± 0.01
CUGCCCUGGCCCGAGGGACCGA	1.21 ± 0.096
CAAGCUUGUAUCUAUAGGUAUG	1.59 ± 0.17
GUGAGGGCAUGCAGGCCUGGAUGGGG	1.43 ± 0.21

Sequence	HRG-induced Akt activation (log2)
UUCAUUCGGCUGUCCAGAUGUA	1.48 ± 0.1
UAGCAGCGGGAACAGUUCUGCAG	1.61 ± 0.1
GUCCCUCUCCAAAUGUGUCUUG	0.988 ± 0.27
GAGUGCCUUCUUUUGGAGCGUU	1.04 ± 0.043
UUAUUGCUUAAGAAUACGCGUAG	1.64 ± 0.095
CACUGUAGGUGAUGGUGAGAGUGGGCA	1.51 ± 0.23
AAACCGUUACCAUUACUGAGUU	1.22 ± 0.2
UUAAUGCUAAUCGUGAUAGGGGU	0.789 ± 0.062
AAAAGUAUUUGCGGGUUUUGUC	1.58 ± 0.098
GAAAGCGCUUCCCUUUGCUGGA	1.63 ± 0.082
AGCAGCAUUGUACAGGGCUAUGA	1.45 ± 0.015
CAAAGAGGAAGGUCCCAUUAC	2.01 ± 0.3
UGGUGGUUUACAAAGUAAUUCA	1.29 ± 0.11
ACUCCAGCCCCACAGCCUCAGC	1.84 ± 0.05
GUUUGCACGGGUGGGCCUUGUCU	1.88 ± 0.072
ACUCUAGCUGCCAAAGGCGCU	1.02 ± 0.67
CUUUCAGUCGGAUGUUUACAGC	1.62 ± 0.098
AUCACAUUGCCAGGGAUUACC	1.54 ± 0.03
CUUCUUGUGCUCUAGGAUUGU	1.13 ± 0.024
CCUAGUAGGUGUCCAGUAAGUGU	1.04 ± 0.63
CGUCUUACCCAGCAGUGUUUGG	1.73 ± 0.13
UCAUAGCCCUGUACAAUGCUGCU	1.697 ± 0.0055
UGUGCAAAUCCAUGCAAAACUGA	0.657 ± 0.2
